# Measured values taken from article PMC10510381, “Alkyne as a Latent Warhead to Covalently Target SARS-CoV-2 Main Protease” (Journal of Medicinal Chemistry, 2023).
# Molecular target: C145A mutant of M^pro (Severe acute respiratory syndrome coronavirus 2, UniProt P0DTD1, C3408A)
# Format: cell-based, SARS-CoV-2
compound,measurement,value
"C#CC[C@H](NC(=O)C(F)(F)F)C(=O)N1C[C@H]2[C@@H]([C@H]1C(=O)N[C@H](C#C)C[C@@H]1CCNC1=O)C2(C)C [Alk-4d, O=C1NCC[C@H]1C[C@@H](C#C)NC([C@H]2N(C([C@@H](NC(C(F)(F)F)=O)CC#C)=O)C[C@H]3[C@@H]2C3(C)C)=O]",labeling of C145A mutant of M^pro in cells,no labeling
